According to paper PMC11148772, “Inhibition of protein translational machinery in triple-negative breast cancer as a promising therapeutic strategy” (Cell Reports Medicine, 2024):

Tests used:
4T1 lung metastasis = assay: Orthotopic 4T1 model, lung metastasis; assay type: in vivo, mouse; conditions: orthotopic 4T1, 50 mg/kg, lung metastatic nodules counted
Excerpt: (§1) Data S2. Effect of SU056 treatment on body weight, metastatic potential and pharmacokinetic profiling of SU056, related to Figure 2 and 3
Human, mouse and PDX models of TNBC were used for tumor xenograft studies. SU056 treatment was started when tumors reached around ~25-50 mm3 and continued until the experiment reached its 3-week endpoint. Body weight was monitored throughout the study to understand any change in dietary pattern. Body weights of A) MDA-MB-231, B) MDA-MB-468, C) 4T1, D) EMT6, E) CA1616-PDX-TNBC, F) CA1262-PDX-TNBC, G) MA2821-PDX-TNBC and H) SUTI151-PDX-TNBC over time. I) Tumor volume, J) Tumor weight and K) The bar graph represents lung metastatic nodules in 4T1 orthotopic models. L) Representative images of lungs at the end of the treatment cycle. M) Mice were treated with 20 mg/kg SU056 orally. Cmax (maximum serum concentration), Tmax (time to reach Cmax), and T1/2 (elimination half-life of compound). N) Human liver microsomes were used for the purpose of metabolic profiling.
Data are shown as mean ± SD. Error bars represent ± SD.
*p < 0.05, **p < 0.01, ***p < 0.001 and ****p < 0.0001. Significant difference compared with respective control by Student’s t test or one-way ANOVA followed by Dunnett’s test.

[1] = Body weight during tumor xenograft treatment; assay type: in vivo, mouse; conditions: 50 mg/kg
Experimental: Female NOD-Scid gamma (NSG, Homozygous for Prkdc, Hemizygous for Il2rg<tm1Wjl>) (Strain #005557) and Balb/cJ (Strain#000651) (7–8 weeks old) mice were purchased from the Jackson Laboratory and housed under standard laboratory conditions. The Institutional Animal Care & Use Program of Oregon Health and Science University approved the protocol (#IP00003247). MDA-MB-231 (3 x 10^6), MDA-MB-468 (5 x 10^6), 4T1 (1 x 10^5) and EMT6 (1 x 10^5) cells were suspended in 100 μL of 1x PBS and injected subcutaneously in each mouse. Tumor growth was monitored regularly and once the tumors reached approximately around 50–100 mm^3, treatment with SU056 (50 mg/kg body weight given by oral gavage, 5 days per week) was started. Tumor size and body weight were measured once a week. At the end of treatment, mice were euthanized via deep anesthesia followed by cervical dislocation. Tumors were excised and weighed. Tumor samples were processed for immunoblotting for different markers.
as §1
Human, mouse and PDX models of TNBC were used for tumor xenograft studies. SU056 treatment was started when tumors reached around ~25-50 mm3 and continued until the experiment reached its 3-week endpoint. Body weight was monitored throughout the study to understand any change in dietary pattern. […]

kinases = assay: KINOMEscan multi-kinase profiling; assay type: binding; conditions: 10 μM
Experimental: The multi-kinase inhibition profile of SU056 was determined via the KINOMEScan screening platform (Eurofins discovery). The screening was performed at 10 μM of SU056. The kinase dendrogram was developed using the TREEspot interaction maps online application (Eurofins Discovery). The results are expressed as residual activity (% Control).

[2] = system: pharmacology panel (receptors, channels, transporters, enzymes); assay: In vitro radioligand binding and enzyme and uptake assay panel; conditions: 10 μM
Experimental: (§2) The compound SU056 was tested for its radioligand binding and enzyme and uptake characteristics by Eurofins lab services (Eurofins discovery). The screening was performed at 10 μM of SU056. The binding was calculated as % inhibition of the binding of a radioactively labeled ligand specific to each target. The SU056 enzyme inhibition effect was determined as % inhibition of control enzyme activity.

COX2 = molecular target: T1, COX2 (Homo sapiens, UniProt P35354); assay: Enzyme assay (in vitro pharmacology); assay type: biochemical; conditions: 10 μM
T1 construct: purchased Eurofins Discovery
Experimental: as §2

PDE4D2 = molecular target: T2, PDE4D2 (Homo sapiens, UniProt Q08499); assay: Enzyme assay (in vitro pharmacology); assay type: biochemical; conditions: 10 μM
T2 construct: purchased Eurofins Discovery
Experimental: as §2

[3] = molecular target: T3, YB-1 and RPL11 interaction (Homo sapiens, UniProt P67809); assay: Immunoprecipitation of YB-1; assay type: cell-based; conditions: MDA-MB-231 and MDA-MB-468, 1 μM
T3 construct: Immunoprecipitation of YB-1 from protein lysates of SU056-treated MDA-MB-231 and MDA-MB-468 cells using YB-1 antibody; endogenous in cells; host or cells: MDA-MB-231; MDA-MB-468
Experimental: MDA-MB-231 and MDA-MB-468 cells with and without SU056 (1 μM) treatment for 6 and 12 h respectively and were lysed using M-PER lysis solution (Thermo Scientific, #78503), supplemented with Halt protease and phosphatase inhibitor cocktail (Thermo Scientific, #78440). Precleaned 300 μg protein lysate was incubated overnight at 4°C with 3 μg YB-1 (Abcam, #ab76149) on nutating rocker. The antibody was pulled down using 20 μL Protein A/G magnetic beads (Thermo scientific #88802). After three washings, beads were resuspended in 2X SDS sample buffer followed by heating at 90°C–100°C for 5 min. Samples were resolved and probed with indicated antibodies as described in immunoblotting assay.

In the case of `O=C1OCC2=C1C(c1cccc(F)c1)c1cc3c(cc1N2CCO)OCO3` (centres unmarked) [SU056, 9-(3-fluorophenyl)-5-(2-hydroxyethyl)-6,9-dihydro-[1,3]dioxolo[4,5-g]furo[3,4-b]quinolin-8(5H)-one], the “decrease in lung metastasis compared to control” value (4T1 lung metastasis) is reported as 65.5%, the “body weight of animals throughout treatment” value ([1]; MDA-MB-231, MDA-MB-468, 4T1, EMT6 models) is reported as “remained the same” and the “body weight of animals throughout treatment” value ([1]; PDX models) is reported as “remained the same”. For the same compound, the kinase activity inhibition (kinases) was “does not inhibit”, the “effect on major pharmacological parameters (binding and enzyme assays)” value [2] was “does not affect” and the enzyme activity (COX2) was “inhibits”. The enzyme activity (PDE4D2) was “inhibits” and the “YB-1 and RPL11 interaction” value [3] was “inhibits”.
